Assay type in all cases: cell-based
One assay has as its target T1, human TLR8 (Homo sapiens, UniProt Q9NR97).
T1 construct: host or cells: HEK-Blue cells
T1 sequence (Q9NR97 27-1041): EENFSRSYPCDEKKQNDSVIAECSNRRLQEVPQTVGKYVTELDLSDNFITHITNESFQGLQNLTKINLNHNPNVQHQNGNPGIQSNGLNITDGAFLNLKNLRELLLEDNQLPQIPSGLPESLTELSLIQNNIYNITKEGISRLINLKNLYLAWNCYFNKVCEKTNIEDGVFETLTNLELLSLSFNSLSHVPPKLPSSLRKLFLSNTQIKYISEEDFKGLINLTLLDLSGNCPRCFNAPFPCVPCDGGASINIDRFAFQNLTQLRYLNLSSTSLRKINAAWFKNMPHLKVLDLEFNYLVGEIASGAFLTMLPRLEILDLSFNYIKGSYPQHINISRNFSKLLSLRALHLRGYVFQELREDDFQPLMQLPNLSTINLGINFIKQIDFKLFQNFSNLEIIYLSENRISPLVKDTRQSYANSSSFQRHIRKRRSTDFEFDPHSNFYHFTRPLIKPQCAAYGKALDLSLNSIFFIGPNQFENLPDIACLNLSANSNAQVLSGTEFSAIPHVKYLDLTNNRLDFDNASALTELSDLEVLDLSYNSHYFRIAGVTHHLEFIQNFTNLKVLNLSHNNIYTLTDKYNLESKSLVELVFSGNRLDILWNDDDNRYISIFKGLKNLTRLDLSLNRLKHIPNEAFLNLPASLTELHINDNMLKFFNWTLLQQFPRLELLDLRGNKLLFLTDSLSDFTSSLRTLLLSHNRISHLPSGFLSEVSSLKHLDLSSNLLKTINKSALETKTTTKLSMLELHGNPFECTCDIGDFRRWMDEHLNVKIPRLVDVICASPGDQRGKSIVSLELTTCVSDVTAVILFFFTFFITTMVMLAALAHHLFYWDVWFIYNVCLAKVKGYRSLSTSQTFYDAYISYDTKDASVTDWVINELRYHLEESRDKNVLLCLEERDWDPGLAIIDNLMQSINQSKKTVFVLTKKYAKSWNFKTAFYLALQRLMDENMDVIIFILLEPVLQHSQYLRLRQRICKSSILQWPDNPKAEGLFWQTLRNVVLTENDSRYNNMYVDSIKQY
The assay is described as follows: TLR8 inhibition reporter assay (HEK-Blue cells, SEAP reporter, R848 stimulation). As to conditions: HEK-Blue cells overexpressing human TLR8, SEAP reporter, R848 15.9 μM; read-out: TLR8 IC50. Put shortly:
(§1)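 Screening used HEK-Blue cells overexpressing one human TLR (7, 8 or 9) and an IFN-β minimal promoter–NF-κB/AP-1 SEAP construct. Stimulation lasted 22 h at 37 °C with receptor-specific agonist: gardiquimod, R848 or ODN2006 at 7.5 μM, 15.9 μM and 5 nM.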
For orientation: In a reporter assay the amount or activity of a reporter protein is the signal.

In the next assay the target is T2, human TLR9 (Homo sapiens, UniProt Q9NR96).
T2 construct: host or cells: HEK-Blue cells
T2 sequence (Q9NR96 26-1032): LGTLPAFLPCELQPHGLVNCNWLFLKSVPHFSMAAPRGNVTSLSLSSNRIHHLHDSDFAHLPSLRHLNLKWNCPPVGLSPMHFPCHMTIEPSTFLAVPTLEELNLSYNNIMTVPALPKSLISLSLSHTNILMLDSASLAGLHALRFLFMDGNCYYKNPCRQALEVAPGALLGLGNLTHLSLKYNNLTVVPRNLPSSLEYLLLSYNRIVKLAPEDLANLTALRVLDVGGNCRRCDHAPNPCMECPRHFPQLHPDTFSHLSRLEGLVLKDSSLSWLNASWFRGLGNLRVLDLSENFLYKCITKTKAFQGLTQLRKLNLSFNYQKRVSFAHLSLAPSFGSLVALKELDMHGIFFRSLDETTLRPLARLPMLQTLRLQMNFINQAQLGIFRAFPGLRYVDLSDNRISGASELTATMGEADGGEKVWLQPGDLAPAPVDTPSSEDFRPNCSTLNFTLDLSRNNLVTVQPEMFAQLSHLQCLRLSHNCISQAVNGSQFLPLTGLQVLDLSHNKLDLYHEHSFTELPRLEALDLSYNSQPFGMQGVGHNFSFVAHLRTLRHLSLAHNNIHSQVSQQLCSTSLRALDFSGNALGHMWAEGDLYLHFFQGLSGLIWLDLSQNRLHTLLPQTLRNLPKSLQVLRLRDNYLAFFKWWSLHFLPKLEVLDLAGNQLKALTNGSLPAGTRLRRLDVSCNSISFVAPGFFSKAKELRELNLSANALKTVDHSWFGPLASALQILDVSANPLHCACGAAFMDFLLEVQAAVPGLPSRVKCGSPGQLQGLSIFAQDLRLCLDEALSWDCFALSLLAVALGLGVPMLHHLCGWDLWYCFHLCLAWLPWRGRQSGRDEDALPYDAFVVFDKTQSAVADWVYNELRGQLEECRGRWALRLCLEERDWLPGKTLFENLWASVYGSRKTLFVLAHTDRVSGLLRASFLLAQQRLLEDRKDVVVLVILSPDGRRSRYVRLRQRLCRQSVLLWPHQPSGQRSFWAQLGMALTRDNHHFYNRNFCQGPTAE
Description: TLR9 inhibition reporter assay (HEK-Blue cells, SEAP reporter, ODN2006 stimulation). As to conditions: HEK-Blue cells overexpressing human TLR9, SEAP reporter, ODN2006 5 nM. Put shortly: as §1

The target of another assay is T3, human TLR7 (Homo sapiens, UniProt Q9NYK1).
T3 construct: host or cells: HEK-Blue cells
T3 sequence (Q9NYK1 27-1049): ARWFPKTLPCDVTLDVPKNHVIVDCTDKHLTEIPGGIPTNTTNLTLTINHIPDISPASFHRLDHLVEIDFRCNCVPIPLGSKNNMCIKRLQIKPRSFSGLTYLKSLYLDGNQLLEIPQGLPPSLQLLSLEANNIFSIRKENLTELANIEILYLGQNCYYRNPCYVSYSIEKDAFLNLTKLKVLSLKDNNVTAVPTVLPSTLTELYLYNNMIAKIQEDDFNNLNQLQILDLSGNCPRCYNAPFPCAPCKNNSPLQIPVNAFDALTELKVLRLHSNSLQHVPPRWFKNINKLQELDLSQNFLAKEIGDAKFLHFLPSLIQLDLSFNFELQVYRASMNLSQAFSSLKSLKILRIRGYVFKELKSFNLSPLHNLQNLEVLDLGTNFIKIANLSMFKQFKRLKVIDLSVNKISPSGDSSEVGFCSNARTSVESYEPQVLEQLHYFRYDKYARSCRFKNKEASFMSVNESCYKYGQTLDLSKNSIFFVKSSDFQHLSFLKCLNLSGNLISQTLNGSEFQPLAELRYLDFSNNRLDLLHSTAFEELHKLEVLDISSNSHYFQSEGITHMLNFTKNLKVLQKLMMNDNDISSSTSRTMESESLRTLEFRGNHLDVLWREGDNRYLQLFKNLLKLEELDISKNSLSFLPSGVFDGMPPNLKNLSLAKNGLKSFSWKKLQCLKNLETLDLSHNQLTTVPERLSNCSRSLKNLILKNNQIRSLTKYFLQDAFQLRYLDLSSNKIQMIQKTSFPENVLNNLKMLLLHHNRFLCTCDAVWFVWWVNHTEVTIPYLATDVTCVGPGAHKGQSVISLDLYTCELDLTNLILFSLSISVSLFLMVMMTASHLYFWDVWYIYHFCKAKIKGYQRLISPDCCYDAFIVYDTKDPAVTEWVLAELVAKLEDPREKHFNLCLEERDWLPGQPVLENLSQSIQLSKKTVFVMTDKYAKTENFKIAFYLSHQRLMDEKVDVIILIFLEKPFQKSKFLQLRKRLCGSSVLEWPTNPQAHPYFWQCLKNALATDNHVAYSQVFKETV
The assay is described as follows: TLR7 inhibition reporter assay (HEK-Blue cells, SEAP reporter, gardiquimod stimulation). As to conditions: HEK-Blue cells overexpressing human TLR7, SEAP reporter, gardiquimod 7.5 μM; read-out: TLR7 IC50. The method, boiled down:
as §1

The text below walks through data of patent publication US20230139171A1 (SITA Information Networking Computing UK Limited, priority 2019, published 2023).

The IC50 is the concentration that gives 50% inhibition. `COc1cc(-c2[nH]c3sc(C4CCC(NC5CC6(CNC6)C5)CC4)nc3c2C(C)C)cn2ncnc12` (single isomer, unassigned) [Example 117, N-(4-(6-isopropyl-5-(8-methoxy-[1,2,4]triazolo[1,5-a]pyridin-6-yl)-4H-pyrrolo[3,2-d]thiazol-2-yl)cyclohexyl)-2-azaspiro[3.3]heptan-6-amine]: the IC50 is 0.0229 µM on human TLR8, 7.51 µM on human TLR9 and 0.00572 µM at human TLR7.

Take `COc1cc(-c2[nH]c3sc(C4CCC(N5CC(O)(C(F)(F)F)C5)CC4)nc3c2C(C)C)cn2ncnc12` (single isomer, unassigned) [Example 118, 1-(4-(6-isopropyl-5-(8-methoxy-[1,2,4]triazolo[1,5-a]pyridin-6-yl)-4H-pyrrolo[3,2-d]thiazol-2-yl)cyclohexyl)-3-(trifluoromethyl)azetidin-3-ol]: the IC50 on human TLR8 stood at 0.00126 µM; against human TLR9 it was 3.3 µM; on human TLR7, 0.002 µM.

`COc1cc(-c2[nH]c3sc(C4CCC(N5CC(O)(C(F)(F)F)C5)CC4)nc3c2C(C)C)cn2ncnc12` (single isomer, unassigned) [Example 119, 1-(4-(6-isopropyl-5-(8-methoxy-[1,2,4]triazolo[1,5-a]pyridin-6-yl)-4H-pyrrolo[3,2-d]thiazol-2-yl)cyclohexyl)-3-(trifluoromethyl)azetidin-3-ol]: the values for the IC50 on human TLR8, at human TLR9 and on human TLR7 were 0.0542 µM, more than 50 µM and 0.00333 µM, respectively.

For `COc1cc(-c2[nH]c3sc(C4CCC(N5CCNC(=O)C5)CC4)nc3c2C(C)C)cn2ncnc12` (single isomer, unassigned) [Example 120, 4-(4-(6-isopropyl-5-(8-methoxy-[1,2,4]triazolo[1,5-a]pyridin-6-yl)-4H-pyrrolo[3,2-d]thiazol-2-yl)cyclohexyl) piperazin-2-one], the values for the IC50 at human TLR8, against human TLR9 and on human TLR7 were 0.0167 µM, more than 50 µM and 0.00419 µM, respectively.

In the case of `COc1cc(-c2[nH]c3sc(C4CCC(N5CCNC(=O)C5)CC4)nc3c2C(C)C)cn2ncnc12` (single isomer, unassigned) [Example 121, 4-(4-(6-isopropyl-5-(8-methoxy-[1,2,4]triazolo[1,5-a]pyridin-6-yl)-4H-pyrrolo[3,2-d]thiazol-2-yl)cyclohexyl) piperazin-2-one], the IC50 at human TLR8 is 0.0573 µM; against human TLR9 it was more than 50 µM; at human TLR7 it was 0.00851 µM.

For `COc1cc(-c2[nH]c3sc(C4CCC(N5CC(OC)C5)CC4)nc3c2C(C)C)cn2ncnc12` (single isomer, unassigned) [Example 122, 6-isopropyl-5-(8-methoxy-[1,2,4]triazolo[1,5-a]pyridin-6-yl)-2-(4-(3-methoxyazetidin-1-yl)cyclohexyl)-4H-pyrrolo[3,2-d]thiazole], the half-maximal inhibitory concentration (IC50) at human TLR8 was 0.00334 µM; against human TLR9, 9.25 µM; on human TLR7, 0.00195 µM.

`COc1cc(-c2[nH]c3sc(C4CCC(N5CC(OC)C5)CC4)nc3c2C(C)C)cn2ncnc12` (single isomer, unassigned) [Example 123, 6-isopropyl-5-(8-methoxy-[1,2,4]triazolo[1,5-a]pyridin-6-yl)-2-(4-(3-methoxyazetidin-1-yl)cyclohexyl)-4H-pyrrolo[3,2-d]thiazole]: the values for the IC50 on human TLR8, against human TLR9 and on human TLR7 were 0.0168 µM, 6.29 µM and 0.00509 µM, respectively.

As to `COc1cc(-c2[nH]c3sc(C4CCC(N(C)C5COC5)CC4)nc3c2C(C)C)cn2ncnc12` (single isomer, unassigned) [Example 125, N-(4-(6-isopropyl-5-(8-methoxy-[1,2,4]triazolo[1,5-a]pyridin-6-yl)-4H-pyrrolo[3,2-d]thiazol-2-yl)cyclohexyl)-N-methyloxetan-3-amine], the IC50 on human TLR8 is 0.0259 µM; against human TLR9, 5.4 µM; at human TLR7, 0.0058 µM.

On to `Cc1cc(-c2[nH]c3sc(C4CCC(NC5COC5)CC4)nc3c2C(C)C)cn2ncnc12` (single isomer, unassigned) [Example 130, N-(4-(6-isopropyl-5-(8-methyl-[1,2,4]triazolo[1,5-a]pyridin-6-yl)-4H-pyrrolo[3,2-d]thiazol-2-yl)cyclohexyl)oxetan-3-amine], for which the IC50 came to 0.00242 µM on human TLR8, 11.5 µM at human TLR9 and 0.00045 µM on human TLR7.

On to `Cc1cc(-c2[nH]c3sc(C4CCC(NC5COC5)CC4)nc3c2C(C)C)cn2ncnc12` (single isomer, unassigned) [Example 131, N-(4-(6-isopropyl-5-(8-methyl-[1,2,4]triazolo[1,5-a]pyridin-6-yl)-4H-pyrrolo[3,2-d]thiazol-2-yl)cyclohexyl)oxetan-3-amine], for which the IC50 worked out at 0.0326 µM at human TLR8, 10.9 µM against human TLR9 and 0.00748 µM on human TLR7.
